Patent US5602184A, “Monoterpenes, sesquiterpenes and diterpenes as cancer therapy” (priority 1993, dated 1997)
Several values for one entry are separate records, joined by “and”; a condition that tells them apart may be missing. Equal values may be shown once. Entries after “also recorded” stand apart in the source; their conditions may differ. Read-outs that look alike come from different tables or passages of the source.

Assays:
[1] = system: PC3 human prostate carcinoma; assay: In vitro antitumor activity of terpenes against PC3 (seven day exposure); assay type: cell-based; details: for activity compared with farnesol (standard): FIGS. 7-9, relative to farnesol; for IC50: Homo sapiens, 168 h, PC3, seven day exposure; for activity against the human prostate cancer cells: FIGS. 1-6, growth as % of untreated control
Protocol: A human prostate carcinoma cell line, PC3, was obtained from the American Tissue Culture Collection, Accession No. CRL 1435. The PC3 cells were cultured in RPMI 1640 medium enriched with 10% fetal calf serum (FCS). The medium and the FCS are both available from GIBCO BRL Life Technologies, Inc., 8400 Helgeman Lane, Gaithersburg, Md. 20877.
Terpenes were exposed to the PC3 cells as follows. On day 0, seed PC3 cells at about 1,000 cells per well were placed in each well of a 96-well tissue culture plate along with […] (ml) of culture medium. On day 1, various concentrations of each of the selected terpenes were added. A serial dilution of each terpene was made in dimethyl sulfoxide (DMSO). All of the initial concentrations were about 200 times the desired concentration. Each dose was further diluted 100 times with culture medium. 0.1 ml of each dose was added per well to the tissue culture plate. The plates were incubated at 37° Celsius (C) under 5% carbon dioxide (CO2) for seven days. The results are depicted graphically in FIGS. 1-9 and some of the concentrations which inhibited cell growth to about 50% of the control growth (IC50) are shown in Table 1.

prostate tumor cells = assay: Apoptosis and nuclear fragmentation (DNA ladder gel); assay type: cell-based; details: for DNA ladder indicative of apoptosis: 2% agarose minigel
Protocol: The invention examined the effect on prostate tumor cells of treatment with limonene, farnesol and phytol. […] The classic signature of apoptosis is the cleavage of nuclear DNA into nucleosomal subunits. On gels, this gives rise to the appearance of a ladder as nucleosomal units are sequentially cleaved from the DNA.
After drug exposure, cells were lysed and the high molecular DNA removed by centrifugation. The aqueous phase was treated with proteinase K to digest proteins. After a phenol/chloroform extraction, the DNA was precipitated with salt and ethanol. The pellet was dissolved in deionized water and treated with 500 μg/ml RNase A. The DNA was run on a 2% agarose minigel.

U87 glioblastoma = assay: Effect of limonene on tumor cell proliferation, U87; assay type: cell-based; details: Homo sapiens, 96 h; RPMI 1640; three to four days of continuous treatment
Protocol: (§1) Limonene (Sigma) was evaluated for its effect on proliferation of various tumor cell lines. The cell lines included U87 and A172 (both are glioblastomas), HOS (a low ras osteosarcoma), AD5 (a high ras osteosarcoma), and HT29 (a high ras colon carcinoma). An activated or high ras means that the ras oncogene has mutated to a form which can transform normal cells to malignant cells. The glioblastoma cells were grown in RPMI 1640 culture medium and the other three cell lines were grown in Dulbecco's Modified Eagle's Medium (DMEM, available from GIBCO).
(§2) Limonene was added to the growth medium, which was supplemented with 10% FCS, and incubated at 37° C. for 24 hours. The medium was added to human tumor cells plated the previous day in 60 millimeter (mm) tissue culture (TC) dishes. After three to four days of continuous treatment, the cells were detached by trypsinization and counted using a hemocytometer (Hy-Lite Counting Chamber from Fisher Scientific, 711 Forbes Ave., Pittsburgh, Pa. 15219-4785). Cell viability was determined by a trypin blue exclusion method as described in detail in the manufacturer's instructions.

A172 glioblastoma = assay: Effect of limonene on tumor cell proliferation, A172; assay type: cell-based; details: Homo sapiens, A 172, 96 h; RPMI 1640; three to four days of continuous treatment
Protocol: as §1, §2

[2] = system: HOS osteosarcoma (low ras); assay: Effect of limonene on tumor cell proliferation, HOS; assay type: cell-based; details: Homo sapiens, 96 h; DMEM; three to four days of continuous treatment
Protocol: as §1, §2

[3] = system: AD5 osteosarcoma (high ras); assay: Effect of limonene on tumor cell proliferation, AD5; assay type: cell-based; details: Homo sapiens, 96 h; DMEM; three to four days of continuous treatment
Protocol: as §1, §2

[4] = system: HT29 colon carcinoma (high ras); assay: Effect of limonene on tumor cell proliferation, HT29; assay type: cell-based; details: Homo sapiens, HT-29, 96 h; DMEM; three to four days of continuous treatment
Protocol: as §1, §2

[5] = system: tumor cell lines U87, A172, HOS, AD5, HT29; assay: Cell viability of surviving cells in the proliferation test (exclusion method); assay type: cell-based, human; details: of the approximately 50% of cells which survived (at IC50)
Protocol: as §2

[6] = system: AD5 human osteosarcoma cell line; assay: Effect of limonene on radiation sensitivity of tumor cells; assay type: cell-based; details: 3 mM limonene; FIG. 10
Protocol: An activated ras oncogene makes tumor cells resistant to radiation therapy. The AD5 human osteosarcoma cell line is an example of such a cell line resistant to radiation by virtue of an activated ras oncogene. AD5 cells were cultivated as described in Example 2. Limonene was prepared in various concentrations also as described in Example 2. […] This dose refers to the dose that reduces the number of surviving cells to about 37% of the control cells. Gy (gray) is an international metric unit for an absorbed dose of radiation. One Gy equals one Joule/kg.

[7] = system: PC3 human prostate carcinoma; assay: In vivo antitumor activity of d-limonene against PC3 in nude mice; parameters: species or system nude mice (human PC3 tumor); details: gavage once daily Monday through Friday for two weeks
Protocol: (§3) Nude mice were obtained from Cancer Research Facility in Frederick, Md. The strain name is Athymic MCR-nude. PC3 cells were transplanted into both the right and left flanks of nude mice and allowed to grow until the tumor size reached the volume of approximately 200-300 cubic mm (mm^3). At this time, five mice bearing ten tumors total were allocated to each group.
(§4) The drug or vehicle alone were administered by gavage once daily Monday through Friday for two weeks. The control group received olive oil at a dose of 0.1 cubic centimeters (cc) per ten grams (gm) of body weight. […] Both body weight and tumor volume were measured daily.

[8] = Tolerability and body weight of nude mice treated with limonene; assay type: in vivo
Protocol: as §3, §4

[9] = to compounds having terminal hydroxy groups; cited from earlier work
[10] = system: PC3 human prostate carcinoma; assay: In vivo antitumor activity of phytol against PC3 in nude mice; parameters: species or system nude mice (human PC3 tumor)
Protocol: as §3
(§5) The drug or vehicle alone were administered by gavage once daily Monday through Friday for two weeks. The control group received olive oil at a dose of 0.1 cubic centimeters (cc) per ten grams (gm) of body weight. Other groups received the same volume of olive oil with limonene added to give a daily dose of limonene of 0.1, 1.0 or 2.0 […]. Both body weight and tumor volume were measured daily.
(§6) The experimental procedure of Example 5 was followed except that phytol was used in place of limonene. […] The results are depicted in FIG. 13 which plots the percent change of tumor volume versus the number of days after inoculation of the nude mice with […] tumor cells.

[11] = parameters: species or system nude mice; details: mouse, in vivo
Protocol: as §3, §5, §6

## CC(C)c1ccc(C=O)cc1 [4-isopropylbenzaldehyde]
[1]
  activity compared with farnesol (standard): less active

## CC(C)c1ccc(C(=O)O)cc1 [4-isopropylbenzoic acid]
[1]
  activity compared with farnesol (standard): less active

## CC(C)c1ccc(CO)cc1 [4-isopropylbenzylalcohol]
[1]
  activity compared with farnesol (standard): less active

## O=C(O)CCCCCCCCCCCCCCCO [16-hydroxyhexadecanoic acid]
[1]
  activity compared with farnesol (standard): less active

## C=CC(=C)CCC=C(C)C [beta-myrcene]
[1]
  IC50: 147 µM and 21 µg/mL

## CC(C)=CCCC(C)=CC=O [citral]
[1]
  activity against the human prostate cancer cells: favorable activity
  IC50: 17 µM and 3 µg/mL

## CC(C)=CCCC(C)CC=O (stereo not drawn) [citronellal]
[1]
  activity compared with farnesol (standard): less active

## CC(C)=CCCC(C)CC(=O)O (stereo not drawn) [citronellic acid]
[1]
  activity compared with farnesol (standard): less active

## CC(C)=CCC[C@@H](C)CCO [d-citronellol]
[1]
  activity compared with farnesol (standard): less active

## C=CC(C)CCCC(C)(C)O (stereo not drawn) [dihydromyrcenol]
[1]
  activity compared with farnesol (standard): less active

## CC(C)=CCC/C(C)=C/CC/C(C)=C/CO [farnesol, trans, trans-farnesol]
[1]
  activity against the human prostate cancer cells: favorable activity
  IC50: 85.6 µM and 19 µg/mL
Prostate tumor cells
  mode of cell death: apoptosis, not necrosis
  tumor cell death (not cytostasis): tumor cell death (not cytostasis) was observed
  DNA ladder indicative of apoptosis: a classic DNA ladder indicative of apoptosis has been noted; also recorded: classic DNA ladders

## CC(C)=CCC/C(C)=C/CC/C(C)=C/C(=O)O [farnesylic acid]
[1]
  activity against the human prostate cancer cells: favorable activity

## CC(C)=CCC/C(C)=C/CC/C(C)=C/CC/C(C)=C/CO [geranylgeraniol]
[1]
  activity against the human prostate cancer cells: favorable activity
  IC50: 10.5 µM and 3 µg/mL

## C=C(C)[C@H]1CC=C(C)CC1 [limonene, d-Limonene]
[1]
  IC50: 217 µM and 30 µg/mL
U87 glioblastoma
  IC50: 2100 ± 400 µM
A172 glioblastoma
  IC50: 1500 ± 500 µM
[2]
  IC50: 3000 ± 300 µM
[3]
  IC50: 4800 ± 600 µM
[4]
  IC50: 4500 ± 500 µM
[5]
  cell viability: > 95%
[6]
  effect on radiation dose response curve: alters both the shoulder and the dose (Do) of the radiation dose response curve
Prostate tumor cells
  mode of cell death: apoptosis, not necrosis
  tumor cell death (not cytostasis): tumor cell death (not cytostasis) was observed
  DNA ladder indicative of apoptosis: a classic DNA ladder indicative of apoptosis has been noted; also recorded: classic DNA ladders
[7]; 0.1 gm/kg
  rate of tumor growth vs control group: the same
[7]; 1.0 gm/kg
  rate of tumor growth vs control group: the same
[7]; 2.0 gm/kg
  rate of tumor growth vs control group: approximately half of that in the control group
[8]; gavage, two weeks, up to 2.0 gm/kg
  tolerability: appeared to tolerate the drug well
[8]; mouse, in vivo
  loss in weight: not a statistically significant loss in weight
[9]
  metabolism in vivo: rapidly metabolized

## CC(C)=CCC/C(C)=C\CO [nerol]
[1]
  activity compared with farnesol (standard): less active

## C=CC(C)(O)CCC=C(C)CCC=C(C)C (stereo not drawn) [nerolidol]
[1]
  activity against the human prostate cancer cells: favorable activity
  IC50: 90.1 µM and 20 µg/mL

## C=C(C)C1CC=C(C=NO)CC1 (stereo not drawn) [perillartine]
[1]
  activity compared with farnesol (standard): less active

## C/C(=C\CO)CCC[C@H](C)CCC[C@H](C)CCCC(C)C [phytol]
[1]
  activity against the human prostate cancer cells: favorable activity
  IC50: 34.3 µM and 10 µg/mL
Prostate tumor cells
  mode of cell death: apoptosis, not necrosis
  tumor cell death (not cytostasis): tumor cell death (not cytostasis) was observed
  DNA ladder indicative of apoptosis: a classic DNA ladder indicative of apoptosis has been noted
[10]; during the treatment period
  tumor production during the treatment period: negligible tumor production
[10]; phytol by procedure of Example 5
  tumor volume as compared to the control animals: lower tumor volume
[11]
  tolerability: tolerated the phytol well
